The compounds below were run against mTOR/GbL/Raptor (mTORC1) (Homo sapiens, UniProt P42345) (assay: mTOR/GbL/Raptor (mTORC1) ELISA assay). Details: phosphorylation of 4E-BP1; 0.2 nM mTORC1, 10 μM ATP; read-out: IC50 in this assay (mTORC1 ELISA).
Format: biochemical
How it was run: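 Human mTORC1 (0.2 nM) phosphorylated 50 nM His-tagged 4E-BP1 with 10 µM ATP in HEPES pH 7.2 containing 10 mM MnCl2, 120 min at ambient temperature. Substrate was captured on Ni-chelate plates; phospho-4E-BP1 was detected by primary antibody and HRP secondary with luminescence.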

IC50 | Compound
250 to 1000 nM | CCNc1nc2ccc(-c3ccc4c(c3)CN(c3cc(Nc5cccc(OC)c5)ncn3)CCO4)cc2[nH]1 [Example 284, N-ethyl-6-[4-(6-{[3-(methyloxy)phenyl]amino}pyrimidin-4-yl)-2,3,4,5-tetrahydro-1,4-benzoxazepin-7-yl]-1H-benzimidazol-2-amine]
10 to 50 nM | COc1ccc2c(N3CCOc4ccc(-c5cnc6nc(N)[nH]c6c5)cc4C3)nc(C)nc2c1 [Example 289, 6-{4-[2-methyl-7-(methyloxy)quinazolin-4-yl]-2,3,4,5-tetrahydro-1,4-benzoxazepin-7-yl}-1H-imidazo[4,5-b]pyridin-2-amine]
≤ 10 nM | CCNc1nc2ncc(-c3ccc4c(c3)CN(c3nc(C)nc5c3CC(C)(C)CC5)CCO4)cc2[nH]1 [Example 290, N-ethyl-6-[4-(2,6,6-trimethyl-5,6,7,8-tetrahydroquinazolin-4-yl)-2,3,4,5-tetrahydro-1,4-benzoxazepin-7-yl]-1H-imidazo[4,5-b]pyridin-2-amine]
10 to 50 nM | C[C@H](CO)CS(=O)(=O)c1cc(-c2ccc3c(c2)CN(c2ncnc4c2CC(C)(C)CC4)CCO3)cnc1N [Example 299, (2R)-3-({2-amino-5-[4-(6,6-dimethyl-5,6,7,8-tetrahydroquinazolin-4-yl)-2,3,4,5-tetrahydro-1,4-benzoxazepin-7-yl]pyridin-3-yl}sulfonyl)-2-methylpropan-1-ol]
10 to 50 nM | CC[C@@H](C)NCc1nc2c(c(N3CCOc4ccc(-c5cnc6nc(C)[nH]c6c5)cc4C3)n1)CC(C)(C)CC2 [Example 300, (2R)-N-({6,6-dimethyl-4-[7-(2-methyl-1H-imidazo[4,5-b]pyridin-6-yl)-2,3-dihydro-1,4-benzoxazepin-4(5H)-yl]-5,6,7,8-tetrahydroquinazolin-2-yl}methyl)butan-2-amine]
10 to 50 nM | C[C@@H](CO)CS(=O)(=O)c1cc(-c2ccc3c(c2)CN(c2ncnc4c2CC(C)(C)CC4)CCO3)cnc1N [Example 301, (2S)-3-({2-amino-5-[4-(6,6-dimethyl-5,6,7,8-tetrahydroquinazolin-4-yl)-2,3,4,5-tetrahydro-1,4-benzoxazepin-7-yl]pyridin-3-yl}sulfonyl)-2-methylpropan-1-ol]
250 to 1000 nM | COc1ccc2c(N3CCOc4ccc(-c5cnc(N)c([S+]([O-])C[C@@H](C)CO)c5)cc4C3)ncnc2c1 (stereo partly drawn) [Example 302, (2S)-3-[(2-amino-5-{4-[7-(methyloxy)quinazolin-4-yl]-2,3,4,5-tetrahydro-1,4-benzoxazolin-7-yl}pyridin-3-yl)sulfinyl]-2-methylpropan-1-ol]
250 to 1000 nM | COc1ccc2c(N3CCOc4ccc(-c5cnc(N)c(S(=O)(=O)C[C@@H](C)CO)c5)cc4C3)ncnc2c1 [Example 303, (2S)-3-[(2-amino-5-{4-[7-(methyloxy)quinazolin-4-yl]-2,3,4,5-tetrahydro-1,4-benzoxazepin-7-yl}pyridin-3-yl)sulfonyl]-2-methylpropan-1-ol]
50 to 250 nM | Cc1nc2ncc(-c3ccc4c(c3)CN(c3ncnc5c3CCC(CO)C5)CCO4)cc2[nH]1 (stereo not shown) [Example 309, {4-[7-(2-methyl-1H-imidazo[4,5-b]pyridin-6-yl)-2,3-dihydro-1,4-benzoxazepin-4(5H)-yl]-5,6,7,8-tetrahydroquinazolin-7-yl}methanol]
≤ 10 nM | Cc1nc2ncc(-c3ccc4c(c3)CN(c3nc(CO)nc5c3CC(C)(C)CC5)CCO4)cc2[nH]1 [Example 312, {6,6-dimethyl-4-[7-(2-methyl-1H-imidazo[4,5-b]pyridin-6-yl)-2,3-dihydro-1,4-benzoxazepin-4(5H)-yl]-5,6,7,8-tetrahydroquinazolin-2-yl}methanol]

Second part, the compound before the results:

Compound | IC50
CCNc1nc2ccc(-c3ccc4c(c3)CN(c3ccnc5c(F)cccc35)CCO4)cc2[nH]1 [Example 282, N-ethyl-6-[4-(8-fluoroquinolin-4-yl)-2,3,4,5-tetrahydro-1,4-benzoxazepin-7-yl]-1H-benzimidazol-2-amine] | 50 to 250 nM
CCNc1nc2ccc(-c3ccc4c(c3)CN(c3ccnc5ccc(F)cc35)CCO4)cc2[nH]1 [Example 283, N-ethyl-6-[4-(6-fluoroquinolin-4-yl)-2,3,4,5-tetrahydro-1,4-benzoxazepin-7-yl]-1H-benzimidazol-2-amine] | 50 to 250 nM
COc1ccc2c(N3CCOc4ccc(-c5cnc(N)nc5)cc4C3)nc(C)nc2c1 [Example 286, 5-{4-[2-methyl-7-(methyloxy)quinazolin-4-yl]-2,3,4,5-tetrahydro-1,4-benzoxazepin-7-yl}pyrimidin-2-amine] | ≥ 2000 nM
CCNc1nc2ccc(-c3ccc4c(c3)CN(c3ncnc(Nc5ccccc5)c3C)CCO4)cc2[nH]1 [Example 287, N-ethyl-6-{4-[5-methyl-6-(phenylamino)pyrimidin-4-yl]-2,3,4,5-tetrahydro-1,4-benzoxazepin-7-yl}-1H-benzimidazol-2-amine] | 50 to 250 nM
CCNc1nc2ccc(-c3ccc4c(c3)CN(c3ccnc5cc(OC)ccc35)CCO4)cc2[nH]1 [Example 291, N-ethyl-6-{4-[7-(methyloxy)quinolin-4-yl]-2,3,4,5-tetrahydro-1,4-benzoxazepin-7-yl}-1H-benzimidazol-2-amine] | 10 to 50 nM
COc1ccc2c(N3CCOc4ccc(-c5cnc(N)s5)cc4C3)nc(C)nc2c1 [Example 292, 5-{4-[2-methyl-7-(methyloxy)quinazolin-4-yl]-2,3,4,5-tetrahydro-1,4-benzoxazepin-7-yl}-1,3-thiazol-2-amine] | 50 to 250 nM
COc1ccc2c(N3CCOc4ccc(-c5cnc(NC(C)=O)s5)cc4C3)nc(C)nc2c1 [Example 293, N-(5-{4-[2-methyl-7-(methyloxy)quinazolin-4-yl]-2,3,4,5-tetrahydro-1,4-benzoxazepin-7-yl}-1,3-thiazol-2-yl)acetamide] | ≥ 2000 nM
CCNc1nc2ccc(-c3ccc4c(c3)CN(c3nc(C)nc5cc(F)ccc35)CCO4)cc2[nH]1 [Example 295, N-ethyl-6-[4-(7-fluoro-2-methylquinazolin-4-yl)-2,3,4,5-tetrahydro-1,4-benzoxazepin-7-yl]-1H-benzimidazol-2-amine] | 50 to 250 nM
COc1ccc2c(N3CCOc4ccc(-c5ccc6[nH]c(=O)[nH]c6c5)cc4C3)nc(C)nc2c1 [Example 296, 5-{4-[2-methyl-7-(methyloxy)quinazolin-4-yl]-2,3,4,5-tetrahydro-1,4-benzoxazepin-7-yl}-1,3-dihydro-2H-benzimidazol-2-one] | ≥ 2000 nM
CC[C@H]1CCc2c(ncnc2N2CCOc3ccc(-c4cnc5nc([C@@H](C)N)[nH]c5c4)cc3C2)C1 [Example 297, (1R)-1-(6-{4-[(7S)-7-ethyl-5,6,7,8-tetrahydroquinazolin-4-yl]-2,3,4,5-tetrahydro-1,4-benzoxazepin-7-yl}-1H-imidazo[4,5-b]pyridin-2-yl)ethanamine] | 50 to 250 nM
CC[C@H]1CCc2c(ncnc2N2CCOc3ccc(-c4cnc5nc([C@H](C)N)[nH]c5c4)cc3C2)C1 [Example 298, (1S)-1-(6-{4-[(7S)-7-ethyl-5,6,7,8-tetrahydroquinazolin-4-yl]-2,3,4,5-tetrahydro-1,4-benzoxazepin-7-yl}-1H-imidazo[4,5-b]pyridin-2-yl)ethanamine] | 50 to 250 nM
CC[C@H](C)NCc1nc2c(c(N3CCOc4ccc(-c5cnc6nc(C)[nH]c6c5)cc4C3)n1)CC(C)(C)CC2 [Example 304, (2S)-N-({6,6-dimethyl-4-[7-(2-methyl-1H-imidazo[4,5-b]pyridin-6-yl)-2,3-dihydro-1,4-benzoxazepin-4(5H)-yl]-5,6,7,8-tetrahydroquinazolin-2-yl}methyl)butan-2-amine] | ≤ 10 nM
CC1(C)CCc2ncnc(N3CCOc4ccc(-c5cnc(N)c(S(=O)(=O)N6CC[C@@H](O)C6)c5)cc4C3)c2C1 [Example 305, (3R)-1-({2-amino-5-[4-(6,6-dimethyl-5,6,7,8-tetrahydroquinazolin-4-yl)-2,3,4,5-tetrahydro-1,4-benzoxazepin-7-yl]pyridin-3-yl}sulfonyl)pyrrolidin-3-ol] | 10 to 50 nM
CC1(C)CCc2ncnc(N3CCOc4ccc(-c5cnc(N6CC[C@H](N)C6)c(S(=O)(=O)N6CC[C@H](N)C6)c5)cc4C3)c2C1 [Example 306, (3S)-1-({2-[(3S)-3-aminopyrrolidin-1-yl]-5-[4-(6,6-dimethyl-5,6,7,8-tetrahydroquinazolin-4-yl)-2,3,4,5-tetrahydro-1,4-benzoxazepin-7-yl]pyridin-3-yl}sulfonyl)pyrrolidin-3-amine] | 250 to 1000 nM
CC1(C)CCc2ncnc(N3CCOc4ccc(-c5cnc(Cl)c(S(=O)(=O)N6CC[C@H](N)C6)c5)cc4C3)c2C1 [Example 307, (3S)-1-({2-chloro-5-[4-(6,6-dimethyl-5,6,7,8-tetrahydroquinazolin-4-yl)-2,3,4,5-tetrahydro-1,4-benzoxazepin-7-yl]pyridin-3-yl}sulfonyl)pyrrolidin-3-amine] | 250 to 1000 nM
CC1(C)CCc2nc(CO)nc(N3CCOc4ccc(-c5cnc6sc(N)nc6c5)cc4C3)c2C1 [Example 308, {4-[7-(2-amino[1,3]thiazolo[5,4-b]pyridin-6-yl)-2,3-dihydro-1,4-benzoxazepin-4(5H)-yl]-6,6-dimethyl-5,6,7,8-tetrahydroquinazolin-2-yl}methanol] | ≤ 10 nM
Cc1nc2cc(-c3ccc4c(c3)CN(c3nc(CO)nc(C)c3Cc3ccc(F)cc3)CCO4)ccc2[nH]1 [Example 310, {5-[(4-fluorophenyl)methyl]-4-methyl-6-[7-(2-methyl-1H-benzimidazol-5-yl)-2,3-dihydro-1,4-benzoxazepin-4(5H)-yl]pyrimidin-2-yl}methanol] | ≤ 10 nM
CC(=O)OCc1nc(C)c(Cc2ccc(F)cc2)c(N2CCOc3ccc(-c4ccc5[nH]c(C)nc5c4)cc3C2)n1 [Example 311, {5-[4(fluorophenyl)methyl]-4-methyl-6-[7-(2-methyl-1H-benzimidazol-5-yl)-2,3-dihydro-1,4-benzoxazepin-4(5H)-yl]pyrimidin-2-yl}methyl acetate] | ≤ 10 nM

Source: US8648066B2 (Exelixis, Inc., priority 2009, dated 2014)
